Source: ChEMBL document CHEMBL3886468, “Cyclohexylamine derivatives having β2 adrenergic agonist and M3 muscarinic antagonist activities” (2016)

Molecular target: Muscarinic acetylcholine receptor M3 (Homo sapiens, UniProt P20309)
Assay: Muscarinic Receptor Binding Assay: The study of binding to human muscarinic M1, M2, M3, M4 and M5 receptors was performed using commercial membranes (Perkin Elmer) prepared from CHO-K1 cells. Radioligand binding experiments were conducted in 96 polypropylene well plates in a total volume of 200 ul. All reagents were dissolved in assay binding buffer (PBS with calcium and magnesium, SIGMA), except compounds that were dissolved in DMSO 100%. Non-specific binding (NSB) was measured in the presence of 1 uM atropine. [3H]-NMS was used as the radioligand at a concentration of 1 nM for M2, M3 and M5 and 0.3 nM for M1 and M4. [3H]-NMS and antagonists were incubated with membranes that express human muscarinic receptors M1, M2, M3, M4 and M5 at concentrations of 8.1, 10, 4.9, 4.5 and 4.9 ug/well, respectively. After an incubation period of two hours with gentle shaking, 150 ul of the reaction mix were transferred to 96 GF/C filter plates (Millipore), previously treated with wash buffer.
Type: cell-based

Sequence of Muscarinic acetylcholine receptor M3 (P20309 whole entry): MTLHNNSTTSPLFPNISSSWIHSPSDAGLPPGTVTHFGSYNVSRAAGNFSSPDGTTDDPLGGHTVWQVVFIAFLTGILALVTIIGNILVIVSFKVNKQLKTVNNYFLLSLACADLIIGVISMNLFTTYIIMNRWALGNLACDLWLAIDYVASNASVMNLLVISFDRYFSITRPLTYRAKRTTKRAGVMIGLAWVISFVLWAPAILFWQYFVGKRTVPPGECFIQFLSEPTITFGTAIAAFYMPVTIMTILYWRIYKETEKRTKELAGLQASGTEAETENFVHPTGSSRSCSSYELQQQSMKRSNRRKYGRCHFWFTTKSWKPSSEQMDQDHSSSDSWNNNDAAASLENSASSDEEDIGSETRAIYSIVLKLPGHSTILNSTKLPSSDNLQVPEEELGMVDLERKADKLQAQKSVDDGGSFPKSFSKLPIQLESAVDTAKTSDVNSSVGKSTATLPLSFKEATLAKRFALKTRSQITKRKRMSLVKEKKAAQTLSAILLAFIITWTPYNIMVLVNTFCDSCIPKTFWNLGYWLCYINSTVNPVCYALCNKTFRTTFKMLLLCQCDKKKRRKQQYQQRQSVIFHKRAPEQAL

## CN(CCCn1nnc2cc(CNC[C@H](O)c3ccc(O)c4c3OCC(=O)N4)ccc21)[C@H]1CC[C@H](OC(=O)[C@](O)(c2cccs2)C2CCCC2)CC1
  IC50: 0.4 nM
